From patent US20180002319A1, “MACROCYCLIC PICOLINAMIDE COMPOUNDS WITH FUNGICIDAL ACTIVITY” (DOW AGROSCIENCES LLC, priority 2014, published 2018) come the findings set out here.

SMILES strings stand for the structures. Where two headings read alike, the source gives them in different places. A value given as a limit tells only on which side of the number the result lay.

What all share (type): in vivo
The test system of one assay is Puccinia triticina. In words: Wheat Brown Rust (PUCCRT) fungicidal activity. To be noted: for pest or weed control at 100 ppm: High Volume application; for pest or weed control at 121.5 g/ha: Low Volume application, 121.5 g/H. The method, boiled down:
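Yuma wheat seedlings at first-leaf stage sprayed to run-off with acetone/water (Triton X-100) solutions, inoculated with P. triticina spores before or after treatment. Overnight dark dew at 22° C, then greenhouse at 24° C; percent disease control from severity versus untreated plants.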

A further assay relates to Erysiphe cichoracearum. In words: Powdery Mildew of Cucumber (ERYSCI) fungicidal activity. To be noted: Golovinomyces cichoracearum, 24 h, 1DP (1 Day Protectant), read-out: ERYSCI Disease Control. How it is done: Technical grades of materials were dissolved in acetone, which were then mixed with nine volumes of H2O containing 110 ppm Triton X-100. The fungicide solutions were applied onto wheat seedlings using an automated booth sprayer to run-off. All sprayed plants were allowed to air dry prior to further handling. All fungicides were evaluated using the aforementioned method for their activity vs. all target diseases, unless stated otherwise. Wheat leaf blotch and brown rust activity were also evaluated using track spray applications, in which case the fungicides were formulated as EC formulations, containing 0.1% Trycol 5941 in the spray solutions. Wheat plants (variety Yuma) were grown from seed in a greenhouse in 50% mineral soil/50% soil-less Metro mix until the first leaf was fully emerged, with 7-10 seedlings per pot. These plants were inoculated with an aqueous spore suspension of Zymoseptoria tritici either prior to or after fungicide treatments. After inoculation the plants were kept in 100% relative humidity (one day in a dark dew chamber followed by two to three days in a lighted dew chamber at 20° C.) to permit spores to germinate and infect the leaf. The plants were then transferred to a greenhouse set at 20° C. for disease to develop. When disease symptoms were fully expressed on the 1st leaves of untreated plants, infection levels were assessed on a scale of 0 to 100 percent disease severity. Percent disease control was calculated using the ratio of disease severity on treated plants relative to untreated plants. Example F: Evaluation of Fungicidal Activity: Powdery Mildew of Cucumber (Erysiphe cichoracearum; Bayer Code […]) Cucumber seedlings (variety Bush Pickle) were grown in soil-less Metro mix, with one plant per pot, and used in the test when 12 to 14 days old. Plants were inoculated with a spore suspension 24 hr following fungicide treatments. After inoculation the plants remained in the greenhouse set at 20° C. until disease was fully expressed. Fungicide formulation, application and disease assessment on the sprayed leaves followed the procedures as described in the Example A.

Another assay deals with Zymoseptoria tritici. In words: Leaf Blotch of Wheat (SEPTTR) fungicidal activity. To be noted: wheat leaf blotch; for pest or weed control at 100 ppm: High Volume application; for pest or weed control at 121.5 g/ha: Low Volume application, 121.5 g/H. Put shortly:
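Wheat seedlings (Yuma, first leaf emerged) were sprayed to run-off with compound in acetone/water containing Triton X-100 and inoculated with Z. tritici spores before or after treatment. Percent disease control comes from 0–100% severity on treated versus untreated plants.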

Setting [1] is: 24 h, 1 day protectant, read-out: PUCCRT disease control, 1DP (1 Day Protectant).
Setting [2] is: 72 h, 3 day curative, read-out: PUCCRT disease control, 3DC (3 Day Curative).
The mark [3] stands for this setting: 24 h, 1 day protectant, read-out: SEPTTR disease control, 1DP (1 Day Protectant).
The mark [4] stands for this setting: 72 h, 3 day curative, read-out: SEPTTR disease control, 3DC (3 Day Curative).

Take `CCCCO[C@H]1CCOC[C@H](NC(=O)c2nccc(OC)c2OCOC(C)=O)C(=O)O[C@@H](C)[C@@H]1OCc1ccccc1` [Compound 2]: the pest or weed control at 100 ppm is more than 80% in the assay on Puccinia triticina (setting [1]); more than 80% in the assay with Puccinia triticina (setting [2]); less than 80% in the assay on Erysiphe cichoracearum; more than 80% in the assay with Zymoseptoria tritici (setting [3]); less than 80% in the assay with Zymoseptoria tritici (setting [4]). Besides, the values for the pest or weed control at 121.5 g/ha in the assay on Puccinia triticina (setting [1]), in the assay on Puccinia triticina (setting [2]) and in the assay on Zymoseptoria tritici (setting [3]) were more than 80%, more than 80% and less than 80%, respectively.

On to `CCCCO[C@H]1CCOC[C@H](NC(=O)c2nccc(OC)c2OCOC(C)=O)C(=O)O[C@@H](C)[C@@H]1OC(=O)C(C)C` [Compound 3], for which the pest or weed control at 100 ppm in the assay on Puccinia triticina (setting [1]) was more than 80%; in the assay with Puccinia triticina (setting [2]), more than 80%; with Zymoseptoria tritici (setting [3]), more than 80%; in the assay with Zymoseptoria tritici (setting [4]), less than 80%.

Consider `CCCCO[C@H]1CCOC[C@H](NC(=O)c2nccc(OC)c2OCOC(C)=O)C(=O)O[C@@H](C)[C@@H]1OC(=O)c1ccccc1` [Compound 4], for which the pest or weed control at 100 ppm in the assay with Puccinia triticina (setting [1]) is more than 80%; in the assay with Puccinia triticina (setting [2]), more than 80%; with Zymoseptoria tritici (setting [3]), more than 80%; in the assay with Zymoseptoria tritici (setting [4]), less than 80%. Moreover, the pest or weed control at 121.5 g/ha in the assay with Puccinia triticina (setting [1]) is more than 80%; in the assay with Puccinia triticina (setting [2]), more than 80%; with Zymoseptoria tritici (setting [3]) it was less than 80%.

Turning to `CCCCO[C@H]1CCOC[C@H](NC(=O)c2nccc(OC)c2OCOC(C)=O)C(=O)O[C@@H](C)[C@@H]1OC(=O)C1CC1` [Compound 5], the pest or weed control at 100 ppm in the assay with Puccinia triticina (setting [1]) is more than 80%; in the assay on Puccinia triticina (setting [2]), more than 80%; with Zymoseptoria tritici (setting [3]), more than 80%; in the assay on Zymoseptoria tritici (setting [4]), less than 80%.

As to `COc1ccnc(C(=O)N[C@H]2COCC[C@@H](OCC(C)C)[C@@H](OCC(C)C)[C@H](C)OC2=O)c1OCOC(C)=O` [Compound 6], the pest or weed control at 100 ppm in the assay on Puccinia triticina (setting [1]), in the assay with Puccinia triticina (setting [2]) and in the assay with Zymoseptoria tritici (setting [3]) was more than 80% each time.

`CCCCCO[C@H]1[C@H](C)OC(=O)[C@@H](NC(=O)c2nccc(OC)c2OCOC(C)=O)CCCC[C@@H]1Oc1ccccc1` [Compound 17]: the pest or weed control at 100 ppm in the assay on Puccinia triticina (setting [1]) was more than 80%; with Puccinia triticina (setting [2]) it was more than 80%; in the assay with Erysiphe cichoracearum it was less than 80%; in the assay on Zymoseptoria tritici (setting [3]) it was more than 80%; with Zymoseptoria tritici (setting [4]), more than 80%.

With `CCCO[C@H]1[C@H](C)OC(=O)[C@@H](NC(=O)c2nccc(OC)c2OCOC(C)=O)CCCC[C@@H]1Oc1ccccc1` [Compound 18], the pest or weed control at 100 ppm was more than 80% in the assay on Puccinia triticina (setting [1]); more than 80% with Puccinia triticina (setting [2]); less than 80% in the assay with Erysiphe cichoracearum; more than 80% in the assay with Zymoseptoria tritici (setting [3]); more than 80% in the assay on Zymoseptoria tritici (setting [4]).

`COc1ccnc(C(=O)N[C@H]2CCCC[C@H](Oc3ccccc3)[C@@H](Oc3ccccc3)[C@H](C)OC2=O)c1OCOC(C)=O` [Compound 19]: the pest or weed control at 100 ppm was more than 80% in the assay with Puccinia triticina (setting [1]); more than 80% in the assay with Puccinia triticina (setting [2]); less than 80% in the assay with Erysiphe cichoracearum; more than 80% in the assay with Zymoseptoria tritici (setting [3]); more than 80% with Zymoseptoria tritici (setting [4]). Also, the pest or weed control at 121.5 g/ha with Puccinia triticina (setting [1]), in the assay with Puccinia triticina (setting [2]), in the assay with Zymoseptoria tritici (setting [3]) and in the assay on Zymoseptoria tritici (setting [4]) was more than 80% each time.

Turning to `COc1ccnc(C(=O)N[C@H]2COCC[C@H](Cc3ccccc3)[C@@H](OCC(C)C)[C@H](C)OC2=O)c1OCOC(C)=O` [Compound 20], the pest or weed control at 121.5 g/ha with Puccinia triticina (setting [1]) was more than 80%; in the assay with Puccinia triticina (setting [2]), more than 80%; in the assay on Zymoseptoria tritici (setting [3]), less than 80%; in the assay on Zymoseptoria tritici (setting [4]), more than 80%. The pest or weed control at 100 ppm in the assay with Erysiphe cichoracearum was less than 80%.

In the case of `COc1ccnc(C(=O)N[C@H]2COCC[C@H](Cc3ccccc3)[C@@H](OCC(C)C)[C@H](C)OC2=O)c1OC(C)=O` [Compound 21], the pest or weed control at 121.5 g/ha in the assay with Puccinia triticina (setting [1]) is more than 80%; in the assay with Puccinia triticina (setting [2]), more than 80%; in the assay on Zymoseptoria tritici (setting [3]) it was less than 80%; in the assay with Zymoseptoria tritici (setting [4]), more than 80%. The pest or weed control at 100 ppm with Erysiphe cichoracearum was less than 80%.

`COc1ccnc(C(=O)N[C@H]2CCOC[C@H](Oc3ccccc3)[C@@H](Oc3ccccc3)[C@H](C)OC2=O)c1OCOC(C)=O` [Compound 37]: the pest or weed control at 121.5 g/ha with Puccinia triticina (setting [1]), in the assay on Puccinia triticina (setting [2]), in the assay on Zymoseptoria tritici (setting [3]) and in the assay on Zymoseptoria tritici (setting [4]) was more than 80% in each case.
